Results from patent publication US5714494A, “Xanthines in the 7th position with a benzyl acetic acid moiety” (Bayer Aktiengesellschaft, priority 1995, dated 1998).
pIC50: −log10 of the molar value.

system: ApoB-100-associated lipoproteins; experiment: Inhibition of the release of ApoB-100-associated lipoproteins from HepG2 cells (immunoassay for human LDL); format: cell-based; settings: HepG2 cells; light absorption 450 nm vs solvent control
Procedure: The test for detecting inhibition of the release of ApoB-100-associated lipoproteins from liver cells was carried out in vitro using cultured liver cells, preferably using cells of the human line HepG2. These cells are grown under standard conditions in medium for the culture of eucaryotic cells, preferably in RPMI 1640 using 10% foetal calf serum. HepG2 cells synthesize and secrete into the culture supernatant ApoB-100-associated lipoprotein particles which in principle are synthesized in a similar manner to the VLDL and LDL particles which are to be found in the plasma.
These particles can be detected using an immunoassay for human LDL. This immunoassay is carried out using antibodies which have been induced in the rabbit against human LDL under standard conditions. The anti-LDL antibodies (rabbit anti-LDL-Ab) were purified by affinity chromatography on an immunosorbent using human LDL. These purified rabbit anti-LDL Ab are adsorbed on the surface of plastic. Expediently, this adsorption is carried out on the plastic surface of microtitre plates having 96 wells, preferably on MaxiSorp plates. If ApoB-100-associated particles are present in the supernatant of Hep-G2 cells, these can bind to the insolubilized rabbit anti-LDL Ab, and an immune complex is formed which is bound to the plastic surface. Unbound proteins are removed by washing. The immune complex located on the plastic surface is detected using monoclonal antibodies which have been induced against human LDL according to standard conditions and purified. These antibodies were conjugated with the enzyme peroxidase. Peroxidase converts the colourless substrate TMB into a coloured product in the presence of H2 O2. After acidification of the reaction mixture using H2 SO4, the specific light absorption at 450 mn is determined, which is a measure of the amount of ApoB-100-associated particles which have been secreted into the culture supernatant by the HepG2 cells.
The IC50 value indicates at which substance concentration the light absorption is inhibited by 50% in comparison with the control (solvent control without substance).

pIC50	SMILES
8.00	Cc1cccc(Cc2nc3c(c(=O)n(C)c(=O)n3C)n2Cc2ccc(C(C(=O)N[C@@H](CO)c3ccccc3)C3CCCC3)cc2)c1 (single isomer, unassigned) [Example 181]
8.00	Cc1ccc(Cc2nc3c(c(=O)n(C)c(=O)n3C)n2Cc2ccc(C(C(=O)N[C@@H](CO)c3ccccc3)C3CCCC3)cc2)cc1 (single isomer, unassigned) [Example 183]
8.15	Cn1c(=O)c2c(nc(Br)n2Cc2ccc(C(C(=O)N[C@@H](CO)c3ccccc3)C3CCCC3)cc2)n(C)c1=O (single isomer, unassigned) [Example 118]
8.70	Cn1c(=O)c2c(nc(-c3ccsc3)n2Cc2ccc(C(C(=O)N[C@@H](CO)c3ccccc3)C3CCCC3)cc2)n(C)c1=O (single isomer, unassigned) [Example 155]
7.60	Cn1c(=O)c2c(nc(-c3cccs3)n2Cc2ccc(C(C(=O)N[C@@H](CO)c3ccccc3)C3CCCC3)cc2)n(C)c1=O (single isomer, unassigned) [Example 159]
7.60	Cn1c(=O)c2c(nc(-c3ccsc3)n2Cc2ccc(C(C(=O)N[C@@H](CO)c3ccccc3)C3CCCC3)cc2)n(C)c1=O (single isomer, unassigned) [Example 156]
7.21	Cn1c(=O)c2c(nc(Cc3cccc(Cl)c3)n2Cc2ccc(C(C(=O)N[C@@H](CO)c3ccccc3)C3CCCC3)cc2)n(C)c1=O (single isomer, unassigned) [Example 193]
6.91	Cc1ccc(-c2nc3c(c(=O)n(C)c(=O)n3C)n2Cc2ccc(C(C(=O)N[C@@H](CO)c3ccccc3)C3CCCC3)cc2)cc1 (single isomer, unassigned) [Example 137]

same assay, conditions: Homo sapiens, HepG2, HepG2 cells; light absorption 450 nm vs solvent control

pIC50	SMILES
8.10	CCn1c(=O)c2c(ncn2Cc2ccc(C(C(=O)N[C@@H](CO)c3ccccc3)C3CCCC3)cc2)n(CC)c1=O (single isomer, unassigned) [Example 212]
6.77	Cn1c(=O)c2c(nc(-c3cccnc3)n2Cc2ccc(C(C(=O)N[C@@H](CO)c3ccccc3)C3CCCC3)cc2)n(C)c1=O (stereo partly drawn) [Example 152]
6.39	Cc1ccc(-c2nc3c(c(=O)n(C)c(=O)n3C)n2Cc2ccc(C(C(=O)N[C@@H](CO)c3ccccc3)C3CCCC3)cc2)c(C)c1 (stereo partly drawn) [Example 138]
8.30	CCn1c(=O)c2c(nc(-c3cccs3)n2Cc2ccc(C(C(=O)N[C@@H](CO)c3ccccc3)C3CCCC3)cc2)n(CC)c1=O (stereo partly drawn) [Example 219]
7.32	Cn1c(=O)c2c(nc(C3CCCC3)n2Cc2ccc(C(C(=O)N[C@@H](CO)c3ccccc3)C3CCCC3)cc2)n(C)c1=O (stereo partly drawn) [Example 122]
8.05	CCn1c(=O)c2c(ncn2Cc2ccc(C(C(=O)N[C@@H](CO)c3ccccc3)C3CCCC3)cc2)n(CC)c1=O (stereo partly drawn) [Example 211]
9.00	Cn1c(=O)c2c(nc(Cc3ccccc3)n2Cc2ccc(C(C(=O)N[C@@H](CO)c3ccccc3)C3CCCCC3)cc2)n(C)c1=O (single isomer, unassigned) [Example 172]
6.13	Cc1ccccc1-c1nc2c(c(=O)n(C)c(=O)n2C)n1Cc1ccc(C(C(=O)N[C@@H](CO)c2ccccc2)C2CCCC2)cc1 (stereo partly drawn) [Example 132]
7.64	Cn1c(=O)c2c(nc(Cc3ccccc3Cl)n2Cc2ccc(C(C(=O)N[C@@H](CO)c3ccccc3)C3CCCC3)cc2)n(C)c1=O (stereo partly drawn) [Example 188]
8.10	Cn1c(=O)c2c(nc(Cc3ccc(F)cc3)n2Cc2ccc(C(C(=O)N[C@@H](CO)c3ccccc3)C3CCCC3)cc2)n(C)c1=O (stereo partly drawn) [Example 194]
8.30	Cc1cccc(Cc2nc3c(c(=O)n(C)c(=O)n3C)n2Cc2ccc(C(C(=O)N[C@@H](CO)c3ccccc3)C3CCCC3)cc2)c1 (single isomer, unassigned) [Example 180]
7.47	CCn1c(=O)c2c(nc(C3CC3)n2Cc2ccc(C(C(=O)N[C@@H](CO)c3ccccc3)C3CCCC3)cc2)n(CC)c1=O (stereo partly drawn) [Example 216]
7.80	Cn1c(=O)c2c(nc(Cc3ccccc3)n2Cc2ccc(C(C(=O)N[C@@H](CO)c3ccccc3)C3CCCC3)cc2)n(C)c1=O (stereo partly drawn) [Example 168]
